Experimental data from patent US20240277743A1, “RESTORING PHYSIOLOGY WITH SMALL MOLECULE MIMICS OF MISSING PROTEINS” (The Board of Trustees Of The University Of Illinois, priority 2014, published 2024).

How the values were obtained:
trk1Δtrk2Δ yeast = test: Functional complementation of a protein with a small molecule assay (rescue broth microdilution); assay type: cell-based, Saccharomyces cerevisiae; settings: for restoration of trk1Δtrk2Δ cell growth by ion transporting natural products: FIG. 3A
Excerpt: Broth microdilution minimum inhibitory concentration (MIC) assay. The protocol for the MIC broth microdilution assay was adapted from the Clinical and Laboratory Standards Institute document M27-A2 and performed as previously described. Gray, K. C. et. al. Proc. Natl. Acad. Sci. U.S.A. 109, 2234-2239 (2012); Palacios, D. S. et al. J. Am. Chem. Soc. 129, 13804-13805 (2007).
Functional complementation of a protein with a small molecule assay. The protocol for the rescue broth microdilution assay was conducted as described in the MIC assay above with the following additions: trk1atrk2Δ yeast were grown in high potassium (100 mM) YPAD liquid media overnight and transferred to normal potassium YPAD liquid media containing vehicle or the indicated concentration of AmB.

[1] = test system: small molecule-rescued trk1Δtrk2Δ cells versus wild type; test: Probing sensitivities to known chemical inhibitors assay; assay type: cell-based, Saccharomyces cerevisiae; settings: for optimum rescue concentration for trk1Δtrk2Δ cells: FIG. 3E legend; for sensitivity of AmB-rescued trk1Δtrk2Δ cells versus AmB-treated wild type to the inhibitor: AmB rescue, OD600 after 24 hours, FIGS. 3B-3D
Protocol: Probing sensitivities to known chemical inhibitors assay. Overnight cultures were grown as described in the MIC assay. Prior to harvesting cells, small molecules AmB, nystatin A1 (Riedel-de-Haen), candicidin (TOKU-E), or mepartricin (Santa Cruz Biotechnology) and chemical inhibitors nocodazole (Sigma-Aldrich), ebselen (Cayman Chemical), or bafilomycin BI (Santa Cruz Biotechnology were prepared as stock solutions in DMSO. Saturated cell cultures were centrifuged for 5 minutes at 1000×g. The supernatant was poured off, and cells were resuspended in sterile MilliQ water. Cells were centrifuged again, and supernatant was poured off. The wash step was repeated. The supernatant was poured off, and cells were resuspended in normal potassium YPAD. Cells were diluted with normal potassium YPAD to an OD600 of 0.01. Next, an appropriate volume of AmB, nystatin A1, candicidin, or mepartricin was added to give a final rescuing concentration of 125 nM, 1000 nM, 8 nM, and 8 nM, respectively. A control was prepared by adding the corresponding volume of DMSO to trk1Δtrk2Δ cells. 195 μL of WT+small molecule, 195 μL of trk1Δtrk2Δ+small molecule, and 195 μL of trk1Δtrk2Δ+DMSO were added to a 96 well plate. Next, 5 μL of DMSO or chemical inhibitor was added to each well, with each concentration tested in triplicate for both WT and trk1Δtrk2Δ . The plate was covered and incubated at 30° C. for 24 hours. A BioTek Synergy H1 Hybrid Reader was used to measure the OD600. Utilizing GraphPad PRISM, data were fitted by nonlinear regression, inhibition dose response, variable slope (four parameters) to yield EC50 values with SEM. For statistical analysis, EC50 values from the two treatment groups were compared by unpaired t-test.

[2] = test system: CuFi-1 epithelial monolayers (CFTR-deficient human lung epithelia); test: Airway surface liquid (ASL) height studies by confocal fluorescence microscopy; assay type: cell-based
Protocol: Human cell lines and growth conditions. NuLi and CuFi-1 cells were cultured at the air-liquid interface as previously described, using a 1:1 mixture of DMEM: Ham's F-12 supplemented with 2% v/v Ultroser G (Crescent Chemical). Zabner, J. et al. Am. J. Physiol. Lung Cell. Mol. Physiol. 284, […]-[…] (2003). The membrane supports used were Millicell 0.4 μm PCF inserts (Millipore PIHP01250) for Ussing chamber studies, Corning Costar 0.4 μm Transwell Clear Polyester Membrane inserts (Corning 3470) for rotational mucus transport studies, and Millicell 1.0 μm PCF inserts (Millipore PIRP15R48) for ASL studies. These membranes were allowed to mature at an air-liquid interface for a minimum of 14 days to reach full differentiation. Airway surface liquid (ASL) height studies. ASL height was studied using an established fluorescent dye assay. Worthington, E. N. et al. Methods Mol. Biol. 742, 77-92 (2011); Myerburg. M. M. et al. Am. J. Respir. Cell. Mol. Biol. 42, 676-684 (2010). Mature, differentiated membranes were grown on Millicell […] polyethylene terephthalate hanging cell culture inserts. Wild type (NuLi) lung epithelia were treated with perfluorocarbon (FC-72) vehicle, and CuFi epithelia were treated with vehicle or 500 nM AmB and incubated for 24 hours at 37° ° C. On the day of imaging. 2.5 μL of a 70 kDa Texas Red-dextran conjugate (Molecular Probes) solution in PBS was added to the apical side of the membranes, followed by 100 μL of FC-770 to prevent evaporation. These were placed on 100 μL of PBS on a 10 mm glass bottom Fluorodish for imaging (World Precision Instruments). Membranes were imaged immediately after dye addition and again at 24 hours to examine dye absorption. Three Z-stack images per membrane in biological n=6 were taken on an Zeiss LSM700 confocal microscope at 40× oil immersion. These images were analyzed using ImageJ to determine the area of fluorescence in the left hand 200-micron width of each image. Images were converted to 8-bit, Gaussian Blur was applied, and made binary. The parameters for Analyze Particles were particles from 1-Infinity μm^2 in size and from 0%-100% circularity.

yeast = settings: cited from earlier work
trk1Δtrk2Δ cells = test: 86Rb+ uptake assay; assay type: cell-based, Saccharomyces cerevisiae; settings: 3 μM; FIG. 2F
Protocol: ^86Rb^+ uptake assay. The procedure for 86Rb uptake was adapted from Mulet, J. M. et al. Mol. Cell. Biol. 19, 3328-3337 (1999). Overnight yeast cultures were grown as described above. The supernatant was poured off, and the cells were resuspended in sterile water. This wash was repeated two more times. The cells were then resuspended in 40 mL of the potassium starvation/uptake buffer (50 mM succinic acid, 2% glucose, adjusted to pH 5.5 with Tris). After 3 hour incubation in the potassium starvation buffer, cells were centrifuged and washed twice with sterile water. Cells were resuspended in 1 mL of the potassium starvation/uptake buffer. Cell concentration was determined using an INCYTO®; Neubauer disposable hemocytometer, and wild type S. cerevisiae and trk1Δtrk2Δ cells were diluted to the same cell density. 700 μL of the yeast suspension was added to a 1.5 mL Eppendorf tube. After a 5 minute pre-incubation in the potassium starvation/uptake medium, AmB or C35deOAmB was added (final concentration 3 μM) as a DMSO solution. ^86RbCl (1.1 μCi) was then added to the reaction mixtures. Reaction mixtures were vortexed to ensure a homogeneous solution. […] Moist filters were transferred to plastic vials for measuring radioactivity. Radioactivity was monitored using a Perkin Elmer Wizard automatic gamma counter. […]

[3] = test system: AmB ion channel in trk1Δtrk2Δ cells; settings: FIG. 2E
Protocol: Tetraethylammonium block assay. The protocol for the tetraethylammonium block assay was conducted as described in the functional complementation assay above with the addition of 125 nM AmB and the indicated concentration of tetraethylammonium to the normal potassium YPAD media and the indicated concentration of tetraethylammonium to the high potassium (100 mM) YPAD media.

Which results are given for mepartricin?
restoration of trk1Δtrk2Δ cell growth by ion transporting natural products (trk1Δtrk2Δ yeast): Vigorous restoration; optimum rescue concentration for trk1Δtrk2Δ cells [1]: 0.008 µM

Which results are given for `C[C@@H]1[C@H](O)[C@@H](C)/C=C/C=C/CC/C=C/C=C/C=C/C=C/C(O[C@H]2O[C@H](C)[C@@H](O)[C@H](N)[C@@H]2O)CC2O[C@](O)(CC(O)C(O)CCC(O)CC(O)CC(O)CC(=O)O[C@H]1C)CC(O)C2C(=O)O` (stereo partly drawn) [nystatin]?
restoration of trk1Δtrk2Δ cell growth by ion transporting natural products (trk1Δtrk2Δ yeast): Vigorous restoration; optimum rescue concentration for trk1Δtrk2Δ cells [1]: 1 µM

What does the source list for candicidin?
restoration of trk1Δtrk2Δ cell growth by ion transporting natural products (trk1Δtrk2Δ yeast): Vigorous restoration; optimum rescue concentration for trk1Δtrk2Δ cells [1]: 0.008 µM

For C35-deoxy amphotericin B [C35deOAmB], which “ASL height of CuFi-1 epithelia, compound added apically” value ([2]; 500 nM AmB, 24 hours, FIGS. 5A, 5B) is on record?
Its value is “no increase in ASL height”.

What about the “restoration of growth in trk1Δtrk2Δ cells” value (trk1Δtrk2Δ yeast; any tested concentration, FIG. 2D) of the same compound?
The value was “failed to restore growth”.

And the fungicidal activity (yeast)?
The fungicidal activity was “potent fungicidal activity”.

What about the “86Rb+ uptake in trk1Δtrk2Δ cells” value (trk1Δtrk2Δ cells) of the same compound?
The value was “no uptake”.

With `CCCCNc1cc(C(=O)O)cc(S(N)(=O)=O)c1Oc1ccccc1` [bumetanide] as the compound, how does the “effect on AmB-mediated ASL restoration” value ([2]; basolateral addition, inhibits NKCC, FIG. 5D) read?
Its value is “blocked”.

For `CC[N+](CC)(CC)CC` [tetraethylammonium], which “effect on functional complementation observed with AmB” value ([3]; 125 nM AmB, normal potassium (10 mM KCl), dose-dependent) is on record?
The value was “inhibited the functional complementation”.

What about the “general toxicity to trk1Δtrk2Δ cells” value ([3]; permissive conditions (100 mM KCl)) of the same compound?
Its value is “without causing general toxicity”.

For `CO/C1=C\C(C)=C\[C@@H](C)[C@@H](O)[C@@H](C)C/C(C)=C/C=C/[C@H](OC)[C@@H]([C@@H](C)[C@@H](O)[C@H](C)[C@@]2(O)C[C@@H](O)[C@H](C)[C@@H](C(C)C)O2)OC1=O` [bafilomycin], which “sensitivity of AmB-rescued trk1Δtrk2Δ cells versus AmB-treated wild type to the inhibitor” value [1] is on record?
Its value is “exceptionally sensitive”.

For `COC(=O)Nc1nc2ccc(C(=O)c3cccs3)cc2[nH]1` [nocodazole], which “sensitivity of AmB-rescued trk1Δtrk2Δ cells versus AmB-treated wild type to the inhibitor” value [1] is on record?
Its value is “equally sensitive”.
